Measured values as given in paper PMC8956739, “A synthetic lipopeptide targeting top-priority multidrug-resistant Gram-negative pathogens” (Nature Communications, 2022).
“And” between values parts separate entries of the source, which are not always exact repeats. Identical values can stand only once.

Tests used:
A. baumannii AB5075 [1] = assay: In vitro passaging, emergence of resistance; assay type: cell-based, Acinetobacter baumannii; settings: for OD600: 8 ug/mL
Description: Log-phase cultures (OD600 = 0.5, ~10^8 CFU/mL) of A. baumannii AB5075 were inoculated (1:10, v/v) in 200 μL fresh CaMHB (cation-adjusted Mueller–Hinton broth) containing 2, 8 and 16 μg/mL polymyxin B, colistin, F287, and F365 in a 96-well microplate with 4 biological replicates. The cultures were incubated at 37 °C for 12 h before the next dilution (1:10, v/v) with fresh CaMHB. Successive subculturing was conducted for 7 days.

[2] = system: K. pneumoniae FADDI-KP032; assay type: cell-based, Klebsiella pneumoniae; settings: carbapenem-resistant isolate
Method in brief: (§1)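 MICs came from broth microdilution in cation-adjusted Mueller–Hinton broth against clinical isolates. For surfactant binding, P. aeruginosa ATCC 27853 was additionally tested with 10% Survanta® (v/v, 2.5 mg/mL phospholipids) added to the polymyxin-containing broth.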

[3] = system: K. pneumoniae FADDI-KP065; assay type: cell-based, Klebsiella pneumoniae; settings: carbapenem-resistant isolate
Method in brief: as §1

A. baumannii AB5075 [4] = assay: Transcriptomic analysis (RNA-Seq) of bacteria; assay type: cell-based, Acinetobacter baumannii; settings: for logFC (Differential gene expression for all genes), Geneid ABUW_RS00005 / logFC (Differential gene expression for all genes), Geneid ABUW_RS00020 / logFC (Fold change), gene ABUW_RS00010 / logFC (Fold change), gene ABUW_RS00030 / logFC (Fold change), gene ABUW_RS00035 / logFC (Fold change), gene recF (ABUW_RS00015) / 4h_1h logFC (Differential gene expression for all genes), Geneid ABUW_RS00005 / 4h_1h logFC (Differential gene expression for all genes), Geneid ABUW_RS00010 / 4h_1h logFC (Differential gene expression for all genes), Geneid ABUW_RS00015 / 4h_1h logFC (Differential gene expression for all genes), Geneid ABUW_RS00020: RNA-Seq A. baumannii AB5075; for log2FC, gene ABUW_RS01945 (acyl-CoA thioesterase II) / log2FC, gene ABUW_RS02545 (acyl-CoA thioesterase) / log2FC, gene ABUW_RS05045 (acyl-CoA thioesterase) / log2FC, gene ABUW_RS17575 (acyl-CoA thioesterase): pathway Fatty Acid and Lipid Degradation; for 4h_1h logFC (Differential gene expression for all genes), Geneid ABUW_RS00005 / 4h_1h logFC (Differential gene expression for all genes), Geneid ABUW_RS00010 / 4h_1h logFC (Differential gene expression for all genes), Geneid ABUW_RS00015 / 4h_1h logFC (Differential gene expression for all genes), Geneid ABUW_RS00020: 4h vs 1h
Description: Mid-log phase A. baumannii AB5075 (~10^8 CFU/mL) in CaMHB was treated with colistin (2 and 8 μg/mL), F287, F319 or F365 (equimolar concentration to colistin) for 1 and 4 h. Total RNA was extracted using TRIzol Reagent (Invitrogen, USA) and RNeasy Mini Kit (Qiagen, Germany). Quality check of RNA samples was conducted with NanoDrop (Thermo Fisher Scientific, USA) and Agilent 2100 Bioanalyzer (Agilent Technologies, USA) for sequencing (150 bp paired-end) at Genewiz (Shanghai, China). Raw reads were aligned to A. baumannii AB5075 genome (GCF_000963815, https://www.ncbi.nlm.nih.gov/assembly/GCF_000963815.1/) using subread-aligner (subread 2.0.1) and summarized by featureCounts (subread 2.0.1). Principal component analysis (PCA) was conducted with mixOmics 6.14.1 in R. Differentially expressed genes were determined using limma 3.46.0 with a combination of fold change ≥ 2 and false discovery rate (FDR, by Benjamini–Hochberg algorithm) adjusted P-value ≤ 0.05 (n = 3). Enrichment analysis of gene differential expression in AB5075 was conducted using BioCyc (A. baumannii AB5075, version 25.5). UpSetR 1.4.0, ComplexHeatmap 2.6.2 and circlize 0.4.13 were used for data visualization. Raw data were deposited in Short Reads Archive (SRA) database under accession numbers SRR15235669-SRR15235725.

Colistin [reference compound]
regrowth observed from day (A. baumannii AB5075 [1]): 4 days
OD600 (A. baumannii AB5075 [1]; time 0 h, passage 0, replicates rep1-rep4, raw OD600 (blank OD600 0.125333)): 0.152 and 0.143 and 0.147 and 0.146
OD600 (A. baumannii AB5075 [1]; time 12 h, passage 1, replicates rep1-rep4, raw OD600 (blank OD600 0.114667)): 0.136 and 0.134 and 0.13
OD600 (A. baumannii AB5075 [1]; time 24 h, passage 2, replicates rep1-rep4, raw OD600 (blank OD600 0.0956667)): 0.095 and 0.089 and 0.087 and 0.091
OD600 (A. baumannii AB5075 [1]; time 36 h, passage 3, replicates rep1-rep4, raw OD600 (blank OD600 0.088)): 0.088 and 0.087 and 0.085 and 0.091
OD600 (A. baumannii AB5075 [1]; time 48 h, passage 4, replicates rep1-rep4, raw OD600 (blank OD600 0.104667)): 0.095 and 0.093
OD600 (A. baumannii AB5075 [1]; time 60 h, passage 5, replicates rep1-rep4, raw OD600 (blank OD600 0.122333)): 0.125 and 0.117 and 0.115 and 0.107
OD600 (A. baumannii AB5075 [1]; time 72 h, passage 6, replicates rep1-rep4, raw OD600 (blank OD600 0.095)): 0.14 and 0.126 and 0.15
OD600 (A. baumannii AB5075 [1]; time 84 h, passage 7, replicates rep1-rep4, raw OD600 (blank OD600 0.091)): 0.196 and 0.173 and 0.191 and 0.238
OD600 (A. baumannii AB5075 [1]; time 96 h, passage 8, replicates rep1-rep4, raw OD600 (blank OD600 0.0953333)): 0.224 and 0.238 and 0.275 and 0.393
OD600 (A. baumannii AB5075 [1]; time 108 h, passage 9, replicates rep1-rep4, raw OD600 (blank OD600 0.100667)): 0.309 and 0.315 and 0.31 and 0.392
OD600 (A. baumannii AB5075 [1]; time 120 h, passage 10, replicates rep1-rep4, raw OD600 (blank OD600 0.0983333)): 0.387 and 0.364 and 0.444 and 0.49
OD600 (A. baumannii AB5075 [1]; time 132 h, passage 11, replicates rep1-rep4, raw OD600 (blank OD600 0.0843333)): 0.344 and 0.355 and 0.395 and 0.414
OD600 (A. baumannii AB5075 [1]; time 144 h, passage 12, replicates rep1-rep4, raw OD600 (blank OD600 0.091)): 0.477 and 0.464 and 0.465 and 0.416
OD600 (A. baumannii AB5075 [1]; time 156 h, passage 13, replicates rep1-rep4, raw OD600 (blank OD600 0.129)): 0.339 and 0.382 and 0.394
OD600 (A. baumannii AB5075 [1]; time 168 h, passage 14, replicates rep1-rep4, raw OD600 (blank OD600 0.101)): 0.344 and 0.379 and 0.374 and 0.394
time to emergence of resistance (A. baumannii AB5075 [1]; 4× MIC, 7-day passaging): ≤ 3 days
growth over 7 days (A. baumannii AB5075 [1]; 32× MIC): No growth
MIC K. pneumoniae FADDI-KP032 [2]: 1 µg/mL
MIC K. pneumoniae FADDI-KP065 [3]: 0.25 µg/mL
logFC (Differential gene expression for all genes), Geneid ABUW_RS00005 (A. baumannii AB5075 [4]; H vs Cont, 1h): -0.1415
logFC (Differential gene expression for all genes), Geneid ABUW_RS00020 (A. baumannii AB5075 [4]; H vs Cont, 1h): 0.3148
logFC (Fold change), gene ABUW_RS00010 (A. baumannii AB5075 [4]; H vs Cont, 1h): 0.4448
logFC (Fold change), gene ABUW_RS00030 (A. baumannii AB5075 [4]; H vs Cont, 1h): -0.4924
logFC (Fold change), gene ABUW_RS00035 (A. baumannii AB5075 [4]; H vs Cont, 1h): 1.135
logFC (Fold change), gene recF (ABUW_RS00015) (A. baumannii AB5075 [4]; H vs Cont, 1h): -0.2294
log2FC, gene ABUW_RS01945 (acyl-CoA thioesterase II) (A. baumannii AB5075 [4]; H vs Cont, 1h): 0.3504
log2FC, gene ABUW_RS02545 (acyl-CoA thioesterase) (A. baumannii AB5075 [4]; H vs Cont, 1h): 1.4185
log2FC, gene ABUW_RS05045 (acyl-CoA thioesterase) (A. baumannii AB5075 [4]; H vs Cont, 1h): 0.5564
log2FC, gene ABUW_RS17575 (acyl-CoA thioesterase) (A. baumannii AB5075 [4]; H vs Cont, 1h): -1.353
logFC (Differential gene expression for all genes), Geneid ABUW_RS00005 (A. baumannii AB5075 [4]; H vs Cont, 4h): -0.09217
logFC (Differential gene expression for all genes), Geneid ABUW_RS00020 (A. baumannii AB5075 [4]; H vs Cont, 4h): -0.1513
logFC (Fold change), gene ABUW_RS00010 (A. baumannii AB5075 [4]; H vs Cont, 4h): 1.069
logFC (Fold change), gene ABUW_RS00030 (A. baumannii AB5075 [4]; H vs Cont, 4h): -0.5349
logFC (Fold change), gene ABUW_RS00035 (A. baumannii AB5075 [4]; H vs Cont, 4h): 1.256
logFC (Fold change), gene recF (ABUW_RS00015) (A. baumannii AB5075 [4]; H vs Cont, 4h): -1.096
log2FC, gene ABUW_RS01945 (acyl-CoA thioesterase II) (A. baumannii AB5075 [4]; H vs Cont, 4h): -0.7138
log2FC, gene ABUW_RS02545 (acyl-CoA thioesterase) (A. baumannii AB5075 [4]; H vs Cont, 4h): 0.6589
log2FC, gene ABUW_RS05045 (acyl-CoA thioesterase) (A. baumannii AB5075 [4]; H vs Cont, 4h): 0.2411
log2FC, gene ABUW_RS17575 (acyl-CoA thioesterase) (A. baumannii AB5075 [4]; H vs Cont, 4h): -2.464
4h_1h logFC (Differential gene expression for all genes), Geneid ABUW_RS00005 (A. baumannii AB5075 [4]; H): -0.3521
4h_1h logFC (Differential gene expression for all genes), Geneid ABUW_RS00010 (A. baumannii AB5075 [4]; H): 0.7488
4h_1h logFC (Differential gene expression for all genes), Geneid ABUW_RS00015 (A. baumannii AB5075 [4]; H): -1.211
4h_1h logFC (Differential gene expression for all genes), Geneid ABUW_RS00020 (A. baumannii AB5075 [4]; H): 0.2283
logFC (Differential gene expression for all genes), Geneid ABUW_RS00005 (A. baumannii AB5075 [4]; L vs Cont, 1h): -0.03172
logFC (Differential gene expression for all genes), Geneid ABUW_RS00020 (A. baumannii AB5075 [4]; L vs Cont, 1h): 0.1157
logFC (Fold change), gene ABUW_RS00010 (A. baumannii AB5075 [4]; L vs Cont, 1h): -0.05024
logFC (Fold change), gene ABUW_RS00030 (A. baumannii AB5075 [4]; L vs Cont, 1h): -0.1351
logFC (Fold change), gene ABUW_RS00035 (A. baumannii AB5075 [4]; L vs Cont, 1h): -0.09136
logFC (Fold change), gene recF (ABUW_RS00015) (A. baumannii AB5075 [4]; L vs Cont, 1h): -0.09027
log2FC, gene ABUW_RS01945 (acyl-CoA thioesterase II) (A. baumannii AB5075 [4]; L vs Cont, 1h): 0.4895
log2FC, gene ABUW_RS02545 (acyl-CoA thioesterase) (A. baumannii AB5075 [4]; L vs Cont, 1h): 0.2839
log2FC, gene ABUW_RS05045 (acyl-CoA thioesterase) (A. baumannii AB5075 [4]; L vs Cont, 1h): -0.5862
log2FC, gene ABUW_RS17575 (acyl-CoA thioesterase) (A. baumannii AB5075 [4]; L vs Cont, 1h): 0.3237
logFC (Differential gene expression for all genes), Geneid ABUW_RS00005 (A. baumannii AB5075 [4]; L vs Cont, 4h): -0.01117
logFC (Differential gene expression for all genes), Geneid ABUW_RS00020 (A. baumannii AB5075 [4]; L vs Cont, 4h): -0.1061
logFC (Fold change), gene ABUW_RS00010 (A. baumannii AB5075 [4]; L vs Cont, 4h): 0.1057
logFC (Fold change), gene ABUW_RS00030 (A. baumannii AB5075 [4]; L vs Cont, 4h): -0.4634
logFC (Fold change), gene ABUW_RS00035 (A. baumannii AB5075 [4]; L vs Cont, 4h): 0.03384
logFC (Fold change), gene recF (ABUW_RS00015) (A. baumannii AB5075 [4]; L vs Cont, 4h): -0.08717
log2FC, gene ABUW_RS01945 (acyl-CoA thioesterase II) (A. baumannii AB5075 [4]; L vs Cont, 4h): 0.543
log2FC, gene ABUW_RS02545 (acyl-CoA thioesterase) (A. baumannii AB5075 [4]; L vs Cont, 4h): -0.1794
log2FC, gene ABUW_RS05045 (acyl-CoA thioesterase) (A. baumannii AB5075 [4]; L vs Cont, 4h): 0.3247
log2FC, gene ABUW_RS17575 (acyl-CoA thioesterase) (A. baumannii AB5075 [4]; L vs Cont, 4h): -0.8383
4h_1h logFC (Differential gene expression for all genes), Geneid ABUW_RS00005 (A. baumannii AB5075 [4]; L): -0.3028
4h_1h logFC (Differential gene expression for all genes), Geneid ABUW_RS00010 (A. baumannii AB5075 [4]; L): -0.2642
4h_1h logFC (Differential gene expression for all genes), Geneid ABUW_RS00015 (A. baumannii AB5075 [4]; L): -0.2929
4h_1h logFC (Differential gene expression for all genes), Geneid ABUW_RS00020 (A. baumannii AB5075 [4]; L): 0.3892
